Reference: US12180200B1, “2-(benzo[d]oxazol-2-yl)-n′-(isonicotinoyloxy)acetimidamide as an antimicrobial compound” (KING FAISAL UNIVERSITY, priority 2023, dated 2024)

Assays:
Assay type in all cases: cell-based
[1] = test system: Chrysosporium keratinophilum; assay: Agar plate disc-diffusion, antifungal activity
Experimental: (§1) The agar plate disc-diffusion method was applied. […] The discs were then placed onto the surface of agar plates (nutrient agar for bacteria and Sabouraud's dextrose agar for fungi) seeded with the test organism. Each plate contained 15 mL of the agar medium, previously seeded with 0.2 mL of the broth culture of each organism pregrown for 18 hours. The plates were incubated at 37° C. for 48 hours, and 72 hours for fungi. The inhibition zones was measured in mm. Discs impregnated with DMSO were used as a control, and its inhibition zone was subtracted from the tested compound actual inhibition zone.

Aspergillus flavus = assay: Agar plate disc-diffusion, antifungal activity
Experimental: as §1

Bacillus cereus = assay: Agar plate disc-diffusion, antibacterial activity
Experimental: as §1

Staphylococcus aureus = assay: Agar plate disc-diffusion, antibacterial activity
Experimental: as §1

Pseudomonas aeruginosa = assay: Agar plate disc-diffusion, antibacterial activity
Experimental: as §1

Escherichia coli = assay: Agar plate disc-diffusion, antibacterial activity
Experimental: as §1

different microbes = assay: Antimicrobial activity screening (overall statement); conditions: against different microbes (bacteria and fungi of Tables 1 and 2)
Experimental: The agar plate disc-diffusion method was applied. Sterilized filter papers (6 mm in diameter) were wetted with 10 μL of a solution 2-(benzo[d]oxazol-2-yl)-N′-(isonicotinoyloxy)acetimidamide (3) to be tested, containing 10 mg/mL in DMSO, and the discs were allowed to air dry. The discs were then placed onto the surface of agar plates (nutrient agar for bacteria and Sabouraud's dextrose agar for fungi) seeded with the test organism. Each plate contained 15 mL of the agar medium, previously seeded with 0.2 mL of the broth culture of each organism pregrown for 18 hours. The plates were incubated at 37° C. for 48 hours, and 72 hours for fungi. The inhibition zones was measured in mm. Discs impregnated with DMSO were used as a control, and its inhibition zone was subtracted from the tested compound actual inhibition zone.

[2] = A = concentration of comp. = 10,000 μL
[3] = B = concentration of comp. = 30,000 μL
[4] = C = concentration of comp. = 50,000 μL

Compound	inhibition zone [1, 2] [mm]	inhibition zone [1, 3] [mm]	inhibition zone [1, 4] [mm]	inhibition zone (Aspergillus flavus; [2]) [mm]	inhibition zone (Aspergillus flavus; [3]) [mm]	inhibition zone (Aspergillus flavus; [4]) [mm]	inhibition zone (Bacillus cereus; [2]) [mm]	inhibition zone (Bacillus cereus; [3]) [mm]	inhibition zone (Bacillus cereus; [4]) [mm]	inhibition zone (Staphylococcus aureus; [2]) [mm]	inhibition zone (Staphylococcus aureus; B =) [mm]	inhibition zone (Staphylococcus aureus; [4]) [mm]	inhibition zone (Pseudomonas aeruginosa; [2]) [mm]	inhibition zone (Pseudomonas aeruginosa; [3]) [mm]	inhibition zone (Pseudomonas aeruginosa; [4]) [mm]	inhibition zone (Escherichia coli; [2]) [mm]	inhibition zone (Escherichia coli; [3]) [mm]	inhibition zone (Escherichia coli; [4]) [mm]	antimicrobial activities (different microbes)
O=C(O)c1cn(C2CC2)c2cc(N3CCNCC3)c(F)cc2c1=O [Cip., ciprofloxacin, reference compound]	29	30	53	29	30	42	29	30	42	43	44	53	29	30	53	30	39	60	
N/C(Cc1nc2ccccc2o1)=N\OC(=O)c1ccncc1 [Compound 3, 2-(benzo[d]oxazol-2-yl)-N′-(isonicotinoyloxy)acetimidamide]	26	29	48	20	24	35	25	27	36	17	24	30	25	29	50	27	36	52	excellent antimicrobial activities
